Reference: patent US8563614B2, “Use of treprostinil to treat neuropathic diabetic foot ulcers” (United Therapeutics Corporation, priority 2004, dated 2013)

Assays:
[1] = test system: patients with PAD, diabetes and inoperable ischemic foot ulcers; assay: open-label study of safety and efficacy in patients with PAD, diabetes and inoperable ischemic foot ulcers; assay type: in vivo
Procedure: The purpose of this open-label study is to evaluate the safety and efficacy of treprostinil sodium, a stable prostacyclin analogue, in ten patients with PAD, diabetes and inoperable ischemic foot ulcers.
Treprostinil sodium was administered as a continuous subcutaneous infusion beginning at 2.5 ng/Kg/Min and titrated to highest tolerated dose for 12 weeks. Patients were monitored for adverse events, wound healing, skin perfusion pressure and ischemic rest pain.

[2] = test system: human pulmonary arterial smooth muscle cells; details: Clapp et al. 2002; cited from earlier work
[3] = test system: diabetic neuropathy patients having at least one ulcer present on a foot; assay: administration to humans with diabetic neuropathy suffering from foot ulcers; assay type: in vivo; details: continuous subcutaneous infusion, 2.5 ng/kg/min raised weekly to target dose, 12 weeks
Procedure: Diabetic neuropathy patients having at least one ulcer (i.e., small sore or area of tissue gangrene) present on a foot are dosed with increasing amounts of Treprostinil over 12 weeks. The medication is delivered by a small pump that is connected to a catheter placed under the skin. In this manner, increasing dosages of Treprostinil are administered to patients by chronic continuous subcutaneous infusion.
Specifically, a 1.0 mg/mL formulation of Treprostinil sodium (REMODULIN®) is administered subcutaneously using a standard micro-infusion, positive-pressure infusion pump designed for subcutaneous drug delivery (Mini-Med). Patients receive an initial dose of 2.5 ng/kg/min of study drug. If, in a given patient, a dose of 2.5 ng/kg/min is not tolerated (e.g., persistent headache, nausea, emesis, restlessness, anxiety or severe pain at infusion site that cannot be adequately managed by medication or topical treatment), the dose is reduced to 1.25 ng/kg/min. Patients are maintained at 2.5 ng/kg/min (or 1.25 ng/kg/min if 2.5 ng/kg/min is not tolerated) during Week 1. After that, the dose is raised by 2.50 ng/kg/min each week until not tolerated or once a target dose is reached.
Dosing is increased weekly unless not tolerated by the patient. […] One example of a target dose is 15 ng/kg/min. The minimum dose is usually not less than 0.625 ng/kg/min. […]

[4] = test system: patients with class III or class IV heart failure; details: Patterson et al. 1995; cited from earlier work
[5] = test system: human alveolar macrophages; details: Raychaudhuri et al. 2002; cited from earlier work
[6] = test system: diabetics with non-healing wounds in critically ischemic lower extremities; assay: case-controlled trial in diabetic patients with recalcitrant lower extremity wounds: peri-wound TcPO2 and laser Doppler; assay type: in vivo, human
Procedure: A case-controlled trial examining the effects of treprostinil sodium (Remodulin®), by continuous subcutaneous infusion, was performed in diabetic patients with recalcitrant lower extremity wounds. The known vasodilator and platelet-aggregation inhibitor properties of treprostinil sodium warranted its evaluation as an adjuvant to wound healing in ischemic extremities. The primary endpoints were wound healing and limb salvage. Amongst the secondary endpoints were resting peri-wound transcutaneous oximetry (TcPO2) and laser Doppler analysis (LD) and the response of TcPO2 and LD to an oxygen challenge at ambient or elevated pressure. If treprostinil sodium reduces inflow resistance distal to the pre-capillary sphincter, the ΔpO2 between the hypoxic wound center and the inflow blood should increase both in magnitude and in the slope of that difference. This would be the physiologic basis for the augmentation of the hypoxic signal.
The seven enrolled patients were diabetics with non-healing wounds present (>3 months) in critically ischemic lower extremities (Fontaine Stage III-IV or Rutherford Stage 4, 5 or 6). The treprostinil sodium (Remodulin®) was given by continuous subcutaneous infusion for the study period of 6 weeks. Candidacy for hyperbaric oxygen treatment was an exclusion criterion (patient refusal, logistical constraints or a recently completed HBO2 course). […]

[7] = of seven patients who completed the trial to-date, 12 weeks

Row | SMILES | serious adverse events attributed to treprostinil ([1]; continuous subcutaneous infusion from 2.5 ng/Kg/Min titrated to highest tolerated dose, 12 weeks, seven patients completed) | drug related side effect reported ([1]; continuous subcutaneous infusion, 12 weeks, seven patients completed) | patients who experienced complete healing [1, 7] | patients who experienced complete resolution of rest pain [1, 7] | patients who experienced partial healing [1, 7] | proliferation of human pulmonary arterial smooth muscle cells [2] | foot ulcers present before treatment [3] | new foot ulcers associated with diabetic neuropathy [3] | vasodilator effects [4] | inflammatory cytokine (tumor necrosis factor-α, interleukin-1β, interleukin-6, GM-CSF) secretion and gene expression [5] | effect on ischemic rest pain, skin perfusion, and wound healing ([1]; conclusion of the study) | increase in LD signals (thermal stimulation response) ([6]; all patients with exception of one, on drug against before infusion) | patients who demonstrated healing in wounds ([6]; seven enrolled patients, continuous subcutaneous infusion for 6 weeks, wounds with mean healing arrest of 10.5 months)
1 | CCCCC[C@H](O)CC[C@@H]1[C@H]2Cc3cccc(OCC(=O)O)c3C[C@H]2C[C@H]1O [Treprostinil, 9-deoxy-2′,9-α-methano-3-oxa-4,5,6-trinor-3,7-(1′,3′-interphenylene)-13,14-dihydro-prostaglandin F1] | No serious adverse events | mild to moderate infusion site pain | Two | Five | Two | inhibits proliferation | reduction in the number, size and severity | fewer new foot ulcers | vasodilator effects | inhibits |  |  | 
2 | CCCCC[C@H](O)CC[C@@H]1[C@H]2Cc3cccc(OCC(=O)O)c3C[C@H]2C[C@H]1O [Treprostinil sodium] |  |  |  |  |  |  |  |  |  |  | positive effect | 236% | All patients but one
